Measured values taken from patent US9102648B1, “Bioavailable diacylhydrazine ligands for modulating the expression of exogenous genes via an ecdysone receptor complex” (Intrexon Corporation, priority 2003, dated 2015).

Assays:
[1] = molecular target: T1, Bombyx mori EcR (VP16 fusion, CVBE switch construct) (Bombyx mori, UniProt P49881); experiment: Z3 Assay (HEK-293 cells with CVBE and 6XEcRE LacZ, β-galactosidase reporter); conditions: for Fold Induction, Z3 Assay, 3.3 uM: 3.3 uM ligand; for Fold Induction, Z3 Assay, 3.3 uM / Fold Induction, Z3 Assay, 33 uM: ligand treated / DMSO treated cells; for Fold Induction, Z3 Assay, 3.3 uM / EC50 / Fold Induction, Z3 Assay, 33 uM: average of two wells; for Z3 assay Rel Max FI: maximum fold induction at any concentration relative to that of GS-E ligand; for Z3 assay Rel Max FI / EC50: HEK-293 Z3 cells; for EC50: read-out: Z3 assay EC50, β-galactosidase reporter; for Fold Induction, Z3 Assay, 33 uM: 33 uM ligand
T1 sequence (P49881 86-606): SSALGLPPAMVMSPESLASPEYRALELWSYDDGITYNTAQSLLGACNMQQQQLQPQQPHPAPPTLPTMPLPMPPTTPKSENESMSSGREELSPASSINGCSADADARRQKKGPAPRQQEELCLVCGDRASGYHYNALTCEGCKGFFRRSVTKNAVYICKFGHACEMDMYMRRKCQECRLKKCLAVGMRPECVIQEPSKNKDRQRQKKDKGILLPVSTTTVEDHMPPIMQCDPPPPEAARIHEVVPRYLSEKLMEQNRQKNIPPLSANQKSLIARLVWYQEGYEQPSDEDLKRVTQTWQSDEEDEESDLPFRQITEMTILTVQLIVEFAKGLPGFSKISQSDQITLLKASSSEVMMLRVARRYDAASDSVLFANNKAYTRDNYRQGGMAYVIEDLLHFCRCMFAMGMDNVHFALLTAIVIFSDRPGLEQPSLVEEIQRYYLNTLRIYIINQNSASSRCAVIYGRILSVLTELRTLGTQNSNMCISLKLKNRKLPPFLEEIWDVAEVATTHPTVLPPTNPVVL
T1 sequence (P19793 1-462 partner): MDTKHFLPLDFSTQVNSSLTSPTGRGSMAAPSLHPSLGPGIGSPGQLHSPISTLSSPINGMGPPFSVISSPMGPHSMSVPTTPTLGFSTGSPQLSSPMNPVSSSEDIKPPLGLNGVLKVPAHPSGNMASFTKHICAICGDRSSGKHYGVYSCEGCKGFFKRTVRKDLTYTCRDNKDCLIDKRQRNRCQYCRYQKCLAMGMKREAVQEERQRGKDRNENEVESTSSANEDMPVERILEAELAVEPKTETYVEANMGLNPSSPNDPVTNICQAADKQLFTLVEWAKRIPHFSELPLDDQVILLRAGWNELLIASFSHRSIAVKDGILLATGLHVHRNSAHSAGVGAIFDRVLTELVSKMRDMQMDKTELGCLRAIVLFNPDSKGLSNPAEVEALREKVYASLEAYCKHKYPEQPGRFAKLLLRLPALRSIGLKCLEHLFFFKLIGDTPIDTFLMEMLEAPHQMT
Description: Dr. F. Gage provided a population of stably transformed cells containing CVBE and 6XEcRE as described in Suhr, S. T., Gil, E. B., Senut M. C., Gage, F. H. (1998) Proc. Natl. Acad. Sci. USA 95, 7999-804. Human 293 kidney cells, also referred to as HEK-293 cells, were sequentially infected with retroviral vectors encoding first the switch construct CVBE, and subsequently the reporter construct 6XEcRE Lac Z. The switch construct contained the coding sequence for amino acids 26-546 from Bombyx mori EcR (BE) (Iatrou) inserted in frame and downstream of the VP16 transactivation domain (VBE). A synthetic ATG start codon was placed under the control of cytomegalovirus (CVBE) immediate early promoter and flanked by long terminal repeats (LTR). The reporter construct contained six copies of the ecdysone response element (EcRE) binding site placed upstream of LacZ and flanked on both sides with LTR sequences (6XEcRE).
Dilution cloning was used to isolate individual clones. Clones were selected using 450 ug/mL G418 and 100 ng/mL puromycin. Individual clones were evaluated based on their response in the presence and absence of test ligands.
Human 293 kidney cells stably transformed with CVBE and 6XEcRE LacZ were maintained in Minimum Essential Medium (Mediates, 10-010-CV) containing 10% FBS (Life Technologies, 26140-087), […] G418 (Mediates, 30-234-CR), and […] (Sigma, P-7255), at 37° C. in an atmosphere containing 5% CO2 and were subculture when they reached 75% confluence.
Z3 cells were seeded into 96-well tissue culture plates at a concentration of 2.5×10^3 cells per well and incubated at 37° C. in 5% CO2 for twenty-four hours. Stock solutions of ligands were prepared in DMSO. Ligand stock solutions were diluted 100 fold in media and 50 μL of this diluted ligand solution ([…]) was added to cells. The final concentration of DMSO was maintained at 0.03% in both controls and treatments.
Reporter gene expression was evaluated 48 hours after treatment of cells, β-galactosidase activity was measured using Gal Screen™ bioluminescent reporter gene assay system from Tropix (GSY1000). Fold induction activities were calculated by dividing relative light units (“RLU”) in ligand treated cells with RLU in DMSO treated cells. Luminescence was detected at room temperature using a Dynex MLX microtiter plate luminometer.
Flanking both constructs are long terminal repeats, G418 and puromycin are selectable markers, CMV is the cytomegalovirus promoter, VBE is coding sequence for amino acids 26-546 from Bombyx mori EcR inserted downstream of the VP16 transactivation domain, 6×EcRE is six copies of the ecdysone response element, lacZ encodes for the reporter enzyme β-galactosidase.
(§1) Each assay was conducted in two separate wells, and the two values were averaged. Fold inductions were calculated by dividing relative light units (“RLU”) in ligand treated cells with RLU in DMSO treated cells. EC50s were calculated from dose response data using a three-parameter logistic model.

[2] = molecular target: GAL4 DBD (1-147)-CfEcR(DEF)/VP16AD-βRXREF-LmUSPEF (Choristoneura fumiferana, UniProt O77240); experiment: cell-based; conditions: for Fold Induction, 27-63 Assay, 3.3 uM: 3.3 uM ligand; for Fold Induction, 27-63 Assay, 3.3 uM / Fold Induction, 27-63 Assay, 33 uM: RLU ligand treated / RLU DMSO treated cells; for Fold Induction, 27-63 Assay, 3.3 uM / Fold Induction, 27-63 Assay, 33 uM / EC50: average of two wells; for Fold Induction, 27-63 Assay, 33 uM: 33 uM ligand; for 27-63 assay Rel Max FI: maximum fold induction at any concentration relative to that of GS-E ligand, CHO 27-63 cells; for EC50: read-out: 27-63 assay EC50, CHO 27-63 stable cell line, luciferase reporter
Description: GAL4 DBD (1-147)-CfEcR(DEF)/VP16AD-βRXREF-LmUSPEF:
The wild-type D, E, and F domains from spruce budworm Choristoneura fumiferana EcR (“CfEcR-DEF”; SEQ ID NO: 1) were fused to a GAL4 DNA binding domain (“Gal4DBD1-147”; SEQ ID NO: 2) and placed under the control of a phosphoglycerate kinase promoter (“PGK”; SEQ ID NO: 3). Helices 1 through 8 of the EF domains from Homo sapiens RXRβ (“HsRXRβ-EF”; nucleotides 1-465 of SEQ ID NO: 4) and helices 9 through 12 of the EF domains of Locusta migratoria Ultraspiracle Protein (“LmUSP-EF”; nucleotides 403-630 of SEQ ID NO: 5) were fused to the transactivation domain from VP16 (“VP16AD”; SEQ ID NO: 6) and placed under the control of an elongation factor-1α promoter (“EF-1α”; SEQ ID NO: 7). Five consensus GAL4 response element binding sites (“5XGAL4RE”; comprising 5 copies of a GAL4RE comprising SEQ ID NO: 8) were fused to a synthetic TATA minimal promoter (SEQ ID NO: 9) and placed upstream of the luciferase reporter gene (SEQ ID NO: 10).
CHO cells were transiently transfected with transcription cassettes for GAL4 DBD (1-147) CJEcR(DEF) and for VP16AD βRXREF-LmUSPEF controlled by ubiquitously active cellular promoters (PGK and EF-la, respectively) on a single plasmid. Stably transfected cells were selected by Zeocin resistance. Individually isolated CHO cell clones were transiently transfected with a GAL4 RE-luciferase reporter (pFR Luc). 27-63 clone was selected using Hygromycin.
Cells were trypsinized and diluted to a concentration of 2.5×10^4 cells mL. 100 μL of cell suspension was placed in each well of a 96 well plate and incubated at 37° C. under 5% CO2 for 24 h. Ligand stock solutions were prepared in DMSO and diluted 300 fold for all treatments. Dose response testing consisted of 8 concentrations ranging from […] to 0.01 μM.
Luciferase reporter gene expression was measured 48 h after cell treatment using Bright-Glo™ Luciferase Assay System from Promega (E2650). Luminescence was detected at room temperature using a Dynex MLX microtiter plate luminometer.
as §1

## Cc1cc(C)cc(C(=O)N(NC(=O)c2ccc3c(c2)OC(F)(F)O3)C(C)(C)C)c1 [RG-115256]
[1]
  Fold Induction, Z3 Assay, 3.3 uM: 647
  Z3 assay Rel Max FI: 0.527
  EC50: 692 nM

## CCc1c(OC)cccc1C(=O)NN(C(=O)c1cc2ccccc2n1C)C(C)(C)C [RG-115106, N′-2-Ethyl-3-methoxybenzoyl-N-t-butyl-N-(N-methylindole-2-carbonyl) hydrazide]
[1]
  Fold Induction, Z3 Assay, 3.3 uM: 68
  Z3 assay Rel Max FI: 0.457
  EC50: 2570 nM

## CCCCC(N(NC(=O)c1ccc(CC)cc1)C(=O)c1cccnc1OC)C(C)(C)C (stereo not drawn) [RG-115842]
[2]
  Fold Induction, 27-63 Assay, 3.3 uM: 1269
  Fold Induction, 27-63 Assay, 33 uM: 447
  27-63 assay Rel Max FI: 0.524
  EC50: 1200 nM

## COc1cccc(C(=O)NN(C(=O)c2cc(Cl)nnc2Cl)C(C)(C)C)c1C [RG-115861]
[2]
  Fold Induction, 27-63 Assay, 3.3 uM: 8
  Fold Induction, 27-63 Assay, 33 uM: 593
  27-63 assay Rel Max FI: 0.215
  EC50: 4310 nM

## Cc1cc(C)cc(C(=O)N(NC(=O)c2ccc3cc[nH]c3c2)C(C)(C)C)c1 [RG-115689]
[1]
  Fold Induction, Z3 Assay, 3.3 uM: 13
  Z3 assay Rel Max FI: 0.411
  EC50: 100000 nM

## CCc1c(C(=O)NN(C(=O)c2ccc(C)cc2)C(C)(C)C)ccc2c1OCOC2 [RG-115611]
[1]
  Fold Induction, Z3 Assay, 3.3 uM: 745
  Z3 assay Rel Max FI: 0.703
  EC50: 1580 nM

## COc1cc(C(=O)N(NC(=O)c2cccc(OC(C)=O)c2C)C(C)(C)C)cc(OC)c1C [RG-115557]
[1]
  Fold Induction, Z3 Assay, 3.3 uM: 426
  Z3 assay Rel Max FI: 0.566
  EC50: 1700 nM

## CCc1c(OC)cccc1C(=O)NN(C(=O)c1nn(C(c2ccccc2)(c2ccccc2)c2ccccc2)c2ccccc12)C(C)(C)C [RG-115722]
[1]
  Fold Induction, Z3 Assay, 33 uM: 1

## Cc1c(O)cccc1C(=O)NN(C(=O)c1cc(Cl)nc(Cl)c1)C(C)(C)C [RG-115261]
[1]
  Fold Induction, Z3 Assay, 3.3 uM: 31
  Z3 assay Rel Max FI: 0.498
  EC50: 29500 nM

## CCc1c(OC)cccc1C(=O)NN(C(=O)c1ccc(C(=O)OC)cn1)C(C)(C)C [RG-115717]
[1]
  Fold Induction, Z3 Assay, 33 uM: 9

## CCc1c(OC)cccc1C(=O)NN(C(=O)c1n[nH]c2ccccc12)C(C)(C)C [RG-115723, 1H-Indazole-3-carboxylic acid N-tert-butyl-N′-(2-ethyl-3-methoxy-benzoyl)-hydrazide]
[1]; HEK293, read-out: Fold Induction, Z3 Assay, 33 uM
  fold induction at 33 µM: 17

## COCc1c(OC)cccc1C(=O)NN(C(=O)c1cc(Cl)cc(Cl)c1)C(C)(C)C [RG-115306]
[1]
  Fold Induction, Z3 Assay, 3.3 uM: 5
  Z3 assay Rel Max FI: 0.424
  EC50: 3470 nM

## CCc1c(OC)cccc1C(=O)NN(C(=O)c1cc(C)n(-c2ccccc2)n1)C(C)(C)C [RG-115721]
[1]
  Fold Induction, Z3 Assay, 33 uM: 2

## CCc1c(OC)cccc1C(=O)NN(C(=O)c1cccc2c1OCO2)C(C)(C)C [RG-115496]
[1]
  Fold Induction, Z3 Assay, 3.3 uM: 874
  Z3 assay Rel Max FI: 0.878
  EC50: 1180 nM

## CCc1ccc(C(=O)NN(C(=O)c2cc(Cl)nc(Cl)c2)C(C)(C)C)c(F)c1 [RG-115128]
[1]
  Fold Induction, Z3 Assay, 3.3 uM: 110
  Z3 assay Rel Max FI: 0.538
  EC50: 245 nM

## CCc1ccc(C(=O)NN(C(=O)c2cccc([N+](=O)[O-])c2)C(C)(C)C)c(F)c1 [RG-115167]
[1]
  Fold Induction, Z3 Assay, 3.3 uM: 73
  Z3 assay Rel Max FI: 0.533
  EC50: 240 nM

## CC(C)(C)N(NC(=O)c1ccc2c(c1)OC(F)(F)O2)C(=O)c1ccccc1[N+](=O)[O-] [RG-115352]
[1]
  Fold Induction, Z3 Assay, 3.3 uM: 7
  Z3 assay Rel Max FI: 0.265
  EC50: 45700 nM

## CCc1ccc(C(=O)NN(C(=O)c2cc(F)ccc2[N+](=O)[O-])C(C)(C)C)c(F)c1 [RG-115086]
[1]
  Fold Induction, Z3 Assay, 3.3 uM: 433
  Z3 assay Rel Max FI: 0.433
  EC50: 692 nM

## CCc1ccc(C(=O)NN(C(=O)c2cccc(OC)c2)C(C)(C)C)c(F)c1 [RG-115269]
[1]
  Fold Induction, Z3 Assay, 3.3 uM: 112
  Z3 assay Rel Max FI: 0.552
  EC50: 437 nM

## CCc1ccc(C(=O)NN(C(=O)c2cc(C)nc(Cl)c2)C(C)(C)C)c(F)c1 [RG-115112]
[1]
  Fold Induction, Z3 Assay, 3.3 uM: 618
  Z3 assay Rel Max FI: 0.618
  EC50: 309 nM

## CCc1ccc(C(=O)NN(C(=O)c2ccccc2OC)C(C)(C)C)c(F)c1 [RG-115422]
[1]
  Fold Induction, Z3 Assay, 3.3 uM: 204
  Z3 assay Rel Max FI: 0.769
  EC50: 398 nM

## COc1cc(C(=O)N(NC(=O)c2ccc3c(c2Cl)COCO3)C(C)(C)C)cc(OC)c1C [RG-115441]
[1]
  Fold Induction, Z3 Assay, 3.3 uM: 118
  Z3 assay Rel Max FI: 0.759
  EC50: 126 nM
